Structures can show the parent of a compound that is named as a salt.
Molecular target: PAI-1 (Homo sapiens, UniProt P05121)
Assay: PAI-1 inhibition in the S2251 chromogenic substrate assay (PAI functional assay)
Type: biochemical
Settings: for inhibition at 20 µM / inhibition at 50 µM / inhibition at 100 µM: read-out: INHIBITION OF PAI-1 (degree of inhibition); for INHIBITION OF PAI-1 (degree of inhibition): unit assumed; for IC50: PAI-1, S2251 assay
Procedure: In this assay, a compound is incubated with PAI-1 prior to addition to the tPA assay system. Inhibition of PAI-1 results in the production of plasmin from plasminogen. […]
Compounds of formula (A) were tested in a PAI chromogenic substrate assay. […] In turn, the plasmin cleaved the chromogenic substrate S2251 (Kabi-Vitrum) producing pNA (p-nitroaniline) which was detected scectrophotometrically at 405 nm.

PAI-1, sequence (P05121 24-402): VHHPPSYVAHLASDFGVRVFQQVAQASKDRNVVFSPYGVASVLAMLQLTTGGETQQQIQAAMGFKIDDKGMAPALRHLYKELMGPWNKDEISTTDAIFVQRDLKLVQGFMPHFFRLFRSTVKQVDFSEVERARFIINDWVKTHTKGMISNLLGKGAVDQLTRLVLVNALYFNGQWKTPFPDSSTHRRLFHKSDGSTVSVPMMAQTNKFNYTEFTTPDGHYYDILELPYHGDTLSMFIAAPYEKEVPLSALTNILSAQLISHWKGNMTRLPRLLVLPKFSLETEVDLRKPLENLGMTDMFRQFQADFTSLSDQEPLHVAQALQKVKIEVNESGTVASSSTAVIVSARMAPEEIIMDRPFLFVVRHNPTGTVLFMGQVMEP

INHIBITION OF PAI-1 (degree of inhibition) (6.25 μm, Table 1, first part)	INHIBITION OF PAI-1 (degree of inhibition) (12.5 μm, Table 1, first part)	INHIBITION OF PAI-1 (degree of inhibition) (25 μm, Table 1, first part)	INHIBITION OF PAI-1 (degree of inhibition) (50 μm, Table 1, first part)	INHIBITION OF PAI-1 (degree of inhibition) (100 μm, Table 1, first part)	Compound	also measured
					CN(C)CC(=O)NCc1ccc(/C=c2\[nH]c(=O)/c(=C/c3ccccc3Br)[nH]c2=O)cc1 [Compound 5079, (3Z,6Z)-3-(2-Bromobenzylidene)-6-(4-dimethylaminoacetamidomethylbenzylidene)-2,5-piperazinedione]	inhibition at 20 µM (20 μM, Table 1, second part): 14%; inhibition at 50 µM (Table 1, second part): 58%; inhibition at 100 µM (100 μM, Table 1, second part): 44%
1%	1%	1%	35%	58%	O=c1[nH]/c(=C\c2c[nH]c3ccccc23)c(=O)[nH]/c1=C\c1ccccc1 [Compound 1509, (3Z,6Z)-3-Benzylidene-6-(3-indolylmethylene)-2,5-piperazinedione]	IC50 (Table 2): 50 to 100 µM
1%	6%	28%	49%	48%	CN(C)CCN(C)Cc1ccc(/C=c2\[nH]c(=O)/c(=C/c3ccccc3)[nH]c2=O)cc1 [Compound 1982, (3Z,6Z)-3-Benzylidene-6-(4-(N-methyl-N-(2-dimethylaminoethyl)aminomethylbenzylidene-2,5-piperazinedione hydrochloride]	
0%	0%	0%	14%	40%	O=c1[nH]/c(=C\C2CCCCC2)c(=O)[nH]/c1=C\c1ccccc1 [Compound 1884, (3Z,6Z)-3-Benzylidene-6-cyclohexylmethylene-2,5-piperazinedione]	
					CN(C)CC(=O)NCc1ccc(/C=c2\[nH]c(=O)/c(=C/c3ccoc3)[nH]c2=O)cc1 [Compound 5081, (3Z,6Z)-6-(4-Dimethylaminoacetamidomethylbenzylidene)-3-(3-furylmethylene)-2,5-piperazinedione]	inhibition at 20 µM (20 μM, Table 1, second part): 50%; inhibition at 50 µM (Table 1, second part): 34%; inhibition at 100 µM (100 μM, Table 1, second part): 25%
16%	14%	25%	43%	65%	CN(C)c1ccc(C=C/C=c2\[nH]c(=O)/c(=C/c3ccccc3)[nH]c2=O)cc1 [Compound 1921, (3Z,6Z)-3-Benzylidene-6-(4-dimethylaminocinnamylidene)-2,5-piperazinedione]	
					CN(C)CCOc1ccc(/C=c2\[nH]c(=O)/c(=C/c3ccoc3)[nH]c2=O)cc1 [Compound 5062, (3Z,6Z)-6-(4-(2-Dimethylaminoethoxy)benzylidene)-3-(3-furylmethylene)-2,5-piperazinedione]	inhibition at 20 µM (20 μM, Table 1, second part): 87%; inhibition at 50 µM (Table 1, second part): 81%; inhibition at 100 µM (100 μM, Table 1, second part): 78%
					CN(C)CCCOc1ccc(/C=c2\[nH]c(=O)/c(=C/c3ccc4ccccc4c3)[nH]c2=O)cc1 [Compound 5206]	INHIBITION OF PAI-1 (degree of inhibition) (20 μM, Table 1, second part): 78%; INHIBITION OF PAI-1 (degree of inhibition) (100 μM, Table 1, second part): 72%; IC50 (Table 1, second part): 3 µM
53%	60%	49%	30%	14%	CC(=O)Nc1ccc(/C=c2\[nH]c(=O)/c(=C/c3ccc4c(c3)OCO4)[nH]c2=O)cc1 [Compound 1845, (3Z,6Z)-3-(4-Acetamidobenzylidene)-6-(3,4-methylenedioxybenzylidene)-2,5-piperazinedione]	
					CN(C)CCc1ccc(/C=c2\[nH]c(=O)/c(=C/c3ccccc3)[nH]c2=O)s1 [Compound 5335, (3Z,6Z)-6-Benzylidene-3-(5-(2-dimethylaminoethyl)-2-thienylmethylene)-2,5-piperazinedione]	IC50 (Table 1, second part): 22 µM
					CN(C)CCCOc1ccc(/C=c2\[nH]c(=O)/c(=C/c3ccoc3)[nH]c2=O)cc1 [Compound 5052, (3Z,6Z)-6-(4-(3-Dimethylaminopropoxy)benzylidene)-3-(3-Furylmethylene)-2,5-piperazinedione]	inhibition at 20 µM (20 μM, Table 1, second part): 86%; inhibition at 50 µM (Table 1, second part): 76%; inhibition at 100 µM (100 μM, Table 1, second part): 77%
10%	6%	12%	35%	36%	O=c1[nH]/c(=C\c2c[nH]cn2)c(=O)[nH]/c1=C\c1ccccc1 [Compound 1926, (3Z,6Z)-3-Benzylidene-6-(4-imidazolyl)methylene-2,5-piperazinedione]	
					CN(C)CCCOc1ccc(/C=c2\[nH]c(=O)/c(=C/c3ccc4ccccc4c3)[nH]c2=O)cc1 [Compound 5188, (3Z,6Z)-6-(4-(3-Dimethylaminopropoxy)benzylidene)-3-(2-Naphthylmethylene)-2,5-piperazinedione]	inhibition at 20 µM (20 μM, Table 1, second part): 94%; inhibition at 100 µM (100 μM, Table 1, second part): 90%; IC50 (Table 1, second part): 3.5 µM
					O=C(NCCN1CCc2ccccc2C1)c1ccc(/C=c2\[nH]c(=O)/c(=C/c3ccccc3)[nH]c2=O)cc1 [Compound 5391.HCl]	INHIBITION OF PAI-1 (degree of inhibition) (20 μM, Table 1, second part): 100%; IC50 (Table 1, second part): 3.5 µM
1%	2%	2%	1%	5%	COc1cc(/C=c2\[nH]c(=O)/c(=C/c3ccccc3)[nH]c2=O)ccc1OCCN(C)C [Compound 1959, (3Z,6Z)-3,Benzylidene-6-(4-(2-dimethylaminoethoxy)-3-methoxybenzylidene)-2,5-piperazinedione hydrochloride]	
0%	0%	0%	0%	7%	CN(C)CCCOc1ccc(/C=c2\[nH]c(=O)/c(=C/c3ccc(Cn4ccnc4)cc3)[nH]c2=O)cc1 [Compound 1975, (3Z,6Z)-3-(4-(3-Dimethylaminopropoxy)benzylidene)-6-(4-(1-imidazolylmethyl)benzylidene)-2,5-piperazinedione]	
					CN(C)CCOc1ccc(/C=c2\[nH]c(=O)/c(=C/c3ccccc3)[nH]c2=O)s1 [Compound 5324, (3Z,6Z)-6-Benzylidene-3-(5-(2-dimethylaminoethoxy)-2-thienylmethylene)-2,5-piperazinedione]	IC50 (Table 1, second part): 9 µM

Compound	INHIBITION OF PAI-1 (degree of inhibition) (6.25 μm, Table 1, first part)	INHIBITION OF PAI-1 (degree of inhibition) (12.5 μm, Table 1, first part)	INHIBITION OF PAI-1 (degree of inhibition) (25 μm, Table 1, first part)	INHIBITION OF PAI-1 (degree of inhibition) (50 μm, Table 1, first part)	INHIBITION OF PAI-1 (degree of inhibition) (100 μm, Table 1, first part)	also measured
COc1ccc(/C=c2\[nH]c(=O)/c(=C/c3cccn3C(=O)OC(C)(C)C)[nH]c2=O)cc1 [Compound 1507, (3Z,6Z)-3-(4-Methoxybenzylidene)-6-(2-(1-tertbutoxycarbonyl)pyrrolyl)methylene-2,5-piperazinedione]	1%	1%	45%	62%	78%	IC50 (Table 2): 25 to 50 µM
COc1ccc(/C=c2\[nH]c(=O)/c(=C/c3cn(C(=O)OC(C)(C)C)c4ccccc34)[nH]c2=O)cc1 [Compound 1506, (3Z,6Z)-3-(4-Methoxybenzylidene)-6-(3-(1-tert-butoxycarbonyl)indolyl)methylene-2,5-piperazinedione]	2%	4%	26%	58%	75%	IC50 (Table 2): 25 to 50 µM

— patent US5891877A, “Pharmaceutical compounds” (Xenova Limited, priority 1996, dated 1999)
